Test results: PubChem BioAssay AID248 (DTP/NCI, 2004)
Where “and” joins values, the source holds several entries; their conditions need not be identical. Equal values may be shown once. Inconclusive results and toxic doses are left out. No stated cut-off is given here; in the data, active means T/C of 150% or more; inactive means T/C below 125%.

Tested on: L1210 leukemia ip in BDF1 mice, survival T/C
Test: NCI In Vivo Anticancer Drug Screen. Data for tumor model L1210 Leukemia (intraperitoneal) in B6D2F1 (BDF1) mice
Settings: endpoint: mean survival time, higher = longer survival
Method in brief: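 Tumor was transplanted into mice, which were then dosed with test compound or vehicle alone. Survival was recorded for each group, and the treated figure was expressed relative to the control figure.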

[1] = dose: 100.0 mg/kg/injection, schedule: Q04DX003 (ip), vehicle: saline
[2] = dose: 200.0 mg/kg/injection, schedule: Q04DX003 (ip), vehicle: saline
[3] = dose: 400.0 mg/kg/injection, schedule: Q04DX003 (ip), vehicle: saline
[4] = dose: 100.0 mg/kg/injection, schedule: Q04DX003 (ip), vehicle: saline with Tween-80
[5] = dose: 200.0 mg/kg/injection, schedule: Q04DX003 (ip), vehicle: saline with Tween-80
[6] = dose: 400.0 mg/kg/injection, schedule: Q04DX003 (ip), vehicle: saline with Tween-80
[7] = dose: 100.0 mg/kg/injection, schedule: Q01DX001 (ip), vehicle: saline
[8] = dose: 400.0 mg/kg/injection, schedule: Q01DX001 (ip), vehicle: saline
[9] = dose: 100.0 mg/kg/injection, schedule: Q04DX002 (ip), vehicle: Klucel (hydroxypropylcellulose) (HPC)
[10] = dose: 200.0 mg/kg/injection, schedule: Q04DX002 (ip), vehicle: Klucel (hydroxypropylcellulose) (HPC)
[11] = dose: 50.0 mg/kg/injection, schedule: Q01DX009 (ip), vehicle: saline with Tween-80
[12] = dose: 100.0 mg/kg/injection, schedule: Q01DX009 (ip), vehicle: saline with Tween-80
[13] = dose: 200.0 mg/kg/injection, schedule: Q01DX009 (ip), vehicle: saline with Tween-80
[14] = dose: 400.0 mg/kg/injection, schedule: Q01DX009 (ip), vehicle: saline with Tween-80

Measured: T/C

COc1ccc(CNCC(=O)O)cc1
inactive: dose: 100.0 mg/kg/injection, schedule: Q01DX009 (ip), vehicle: saline 100 % of control | [1] 96 % of control | dose: 200.0 mg/kg/injection, schedule: Q01DX009 (ip), vehicle: saline 100 % of control | [2] 98 % of control | dose: 400.0 mg/kg/injection, schedule: Q01DX009 (ip), vehicle: saline 105 % of control | [3] 96 % of control

c1cnc2c3c(ccc2c1)CN(C1CCCCC1)CO3
inactive: dose: 100.0 mg/kg/injection, schedule: Q04DX003 (ip), vehicle: saline sonified 94 % of control | dose: 200.0 mg/kg/injection, schedule: Q04DX003 (ip), vehicle: saline sonified 91 % of control

Cc1ccc(Nc2nc(N)nc(CNc3ccc(Cl)cc3)n2)cc1
inactive: [4] 89 % of control | [5] 97 % of control | [6] 89 % of control

CC1([N+](=O)[O-])COP(=O)(Nc2ccccc2)OC1 (stereo not drawn)
inactive: dose: 50.0 mg/kg/injection, schedule: Q01DX001 (ip), vehicle: saline 96 % of control | [7] 98 % of control | dose: 200.0 mg/kg/injection, schedule: Q01DX001 (ip), vehicle: saline 93 % of control | [8] 110 % of control

COc1cc2cc3c4cc(OC)c(OC)cc4cc[n+]3c(CCC(=O)O)c2cc1OC (tested in a mixture with another compound)
inactive: dose: 50.0 mg/kg/injection, schedule: Q04DX002 (ip), vehicle: Klucel (hydroxypropylcellulose) (HPC) 103 % of control | [9] 98 % of control | [10] 103 % of control

COc1ccc(CCNC(=O)Cc2ccccc2)cc1OC
inactive: [11] 90 % of control | [12] 93 % of control | [4] 92 % of control | [13] 94 % of control and 96 % of control | [5] 92 % of control | [14] 99 % of control

Cc1ccc(S(=O)(=O)N/N=C/c2ccc([N+](=O)[O-])s2)cc1
inactive: dose: 100.0 mg/kg/injection, schedule: Q04DX003 (ip), vehicle: Klucel (hydroxypropylcellulose) (HPC) 96 % of control | dose: 200.0 mg/kg/injection, schedule: Q04DX003 (ip), vehicle: Klucel (hydroxypropylcellulose) (HPC) 94 % of control | dose: 400.0 mg/kg/injection, schedule: Q04DX003 (ip), vehicle: Klucel (hydroxypropylcellulose) (HPC) 96 % of control

CCC#CC(=O)CC
inactive: dose: 7.5 mg/kg/injection, schedule: Q04DX003 (ip), vehicle: saline 94 % of control | dose: 15.0 mg/kg/injection, schedule: Q04DX003 (ip), vehicle: saline 94 % of control | dose: 30.0 mg/kg/injection, schedule: Q04DX003 (ip), vehicle: saline 95 % of control

CCN(CC)CCCC(C)Nc1cc(N)c2ncc(-c3ccc(Cl)cc3)nc2n1 (stereo not drawn)
inactive: dose: 75.0 mg/kg/injection, schedule: Q01DX001 (ip), vehicle: saline 96 % of control | dose: 150.0 mg/kg/injection, schedule: Q01DX001 (ip), vehicle: saline 102 % of control

OC(C(c1ccccc1)N1CCCCC1)C(O)(c1ccccc1)c1ccccc1 (stereo not drawn)
inactive: dose: 100.0 mg/kg/injection, schedule: Q01DX001 (ip), vehicle: saline sonified 97 % of control | dose: 200.0 mg/kg/injection, schedule: Q01DX001 (ip), vehicle: saline sonified 108 % of control | dose: 400.0 mg/kg/injection, schedule: Q01DX001 (ip), vehicle: saline sonified 93 % of control

CC(=O)NC(C)CC(C)C (stereo not drawn)
inactive: [1] 113 % of control | [2] 103 % of control

CCOc1cc(-c2nc3ccccc3s2)ccc1O
inactive: [4] 96 % of control | [5] 101 % of control | [6] 96 % of control

COc1nc(C)c(C)[n+]([O-])n1
inactive: dose: 12.5 mg/kg/injection, schedule: Q01DX001 (ip), vehicle: saline with Tween-80 94 % of control | dose: 12.5 mg/kg/injection, schedule: Q01DX009 (ip), vehicle: saline with Tween-80 96 % of control | dose: 12.5 mg/kg/injection, schedule: Q04DX003 (ip), vehicle: saline with Tween-80 97 % of control | dose: 25.0 mg/kg/injection, schedule: Q01DX001 (ip), vehicle: saline with Tween-80 100 % of control | dose: 25.0 mg/kg/injection, schedule: Q01DX009 (ip), vehicle: saline with Tween-80 108 % of control | dose: 25.0 mg/kg/injection, schedule: Q04DX003 (ip), vehicle: saline with Tween-80 110 % of control | dose: 50.0 mg/kg/injection, schedule: Q01DX001 (ip), vehicle: saline with Tween-80 107 % of control | [11] 96 % of control | dose: 50.0 mg/kg/injection, schedule: Q04DX003 (ip), vehicle: saline with Tween-80 94 % of control

CC(=O)Nc1ccc(NC(=S)NC(=O)COc2ccccc2)cc1
inactive: dose: 50.0 mg/kg/injection, schedule: Q04DX002 (ip), vehicle: saline with Tween-80 102 % of control and 105 % of control | dose: 100.0 mg/kg/injection, schedule: Q01DX001 (ip), vehicle: saline with Tween-80 107 % of control | [12] 102 % of control and 91 % of control | [4] 97 % of control | dose: 200.0 mg/kg/injection, schedule: Q01DX001 (ip), vehicle: saline with Tween-80 98 % of control | [13] 95 % of control and 98 % of control | [5] 90 % of control | dose: 400.0 mg/kg/injection, schedule: Q01DX001 (ip), vehicle: saline with Tween-80 97 % of control | [14] 101 % of control and 87 % of control | [6] 95 % of control

CC1(C)OC2OC(COC(=O)c3ccccc3)C(O)C2O1 (stereo not drawn)
inactive: dose: 50.0 mg/kg/injection, schedule: Q01DX001 (ip), vehicle: carboxymethylcellulose (CMC) 98 % of control | dose: 100.0 mg/kg/injection, schedule: Q01DX001 (ip), vehicle: carboxymethylcellulose (CMC) 101 % of control | dose: 200.0 mg/kg/injection, schedule: Q01DX001 (ip), vehicle: carboxymethylcellulose (CMC) 104 % of control | dose: 400.0 mg/kg/injection, schedule: Q01DX001 (ip), vehicle: carboxymethylcellulose (CMC) 98 % of control

CCOC(OC(C)=O)OC(C)=O
inactive: [1] 87 % of control | [2] 101 % of control | [3] 97 % of control

O=c1c2c(=O)c3ccccc3c(=O)c=2c(=O)c2ccccc12
inactive: [9] 93 % of control | [10] 89 % of control | dose: 400.0 mg/kg/injection, schedule: Q04DX002 (ip), vehicle: Klucel (hydroxypropylcellulose) (HPC) 89 % of control

O=C(O)c1cc(N=Nc2ccccc2)ccc1O
inactive: [11] 96 % of control | dose: 50.0 mg/kg/injection, schedule: Q04DX003 (ip), vehicle: other 93 % of control | dose: 100.0 mg/kg/injection, schedule: Q01DX001 (ip), vehicle: other 101 % of control | [12] 94 % of control | dose: 100.0 mg/kg/injection, schedule: Q04DX003 (ip), vehicle: other 93 % of control | [1] 96 % of control | dose: 200.0 mg/kg/injection, schedule: Q01DX001 (ip), vehicle: other 107 % of control | dose: 200.0 mg/kg/injection, schedule: Q04DX003 (ip), vehicle: other 98 % of control | [2] 87 % of control

COc1cc(Nc2nc(Cl)ncc2[N+](=O)[O-])cc(OC)c1OC
inactive: [4] 90 % of control | [5] 92 % of control | [6] 92 % of control

O=C1c2ccccc2C(O)N1c1ccccc1 (stereo not drawn)
inactive: [7] 86 % of control | [8] 104 % of control
